System: HES1 (YOR237W) transcript in wild type yeast LPY9
Test: Yeast transcript profiling by array hybridization after ketoconazole treatment
Type: cell-based, Saccharomyces cerevisiae
Conditions: yeast LPY9, array of yeast ORF sequences; SEQ ID NO: 5
Method: The yeast strain LPY9 (MATa, leu2, Ura3, his3) is grown overnight and inoculated into SD+ hul (histidine, uracil, leucine) media. Aliquots of the culture are treated with ketoconazole (an inhibitor of C-14α demethylase (P45014DM) enzyme) at 10 ug/ml, 50 ug/ml, and […], respectively. A sample of each is collected at 2, 4, and 6 hours after treatment. Control samples treated with DMSO (dimethyl sulfoxide-solvent for ketoconazole) but not with ketoconazole are also collected. Total RNA from each sample is collected by conventional methods, such as a Zirconium/Silica bead binding and extraction method. The sequence content of each sample is analyzed and compared by hybridizing each of them to a number of yeast ORF sequences immobilized on a Nylon membrane in an array format.
Using this method, over 600 RNA transcripts levels are shown to be altered.

CC(=O)N1CCN(c2ccc(OCC3COC(Cn4ccnc4)(c4ccc(Cl)cc4Cl)O3)cc2)CC1 (stereo not shown) [ketoconazole]
Effect of ketoconazole addition on yeast HES1 transcript level: particularly effected

From patent US7105730B1, “Nucleic acid molecules and other molecules associated with sterol synthesis and metabolism” (Monsanto Technology L.L.C., priority 1999, dated 2006)
